Laboratory results: patent publication US20260356819A1, “OXOISOINDOLINYL-SUBSTITUTED […] DERIVATIVE AND USE THEREOF” (GLUETACS THERAPEUTICS (SHANGHAI) CO., LTD., priority 2023, published 2026)

Key:
Type in all cases: cell-based
Details in all cases: compounds at 50 nM and 500 nM
WEE1 = molecular target: T1, WEE1 (Homo sapiens, UniProt P30291+Q96SW2); assay: Western blot degradation of WEE1 in hPBMCs (24 h)
T1 construct: The supernatant was aspirated as the extracted total cell protein; endogenous in cells; host or cells: human peripheral blood mononuclear cells (hPBMCs)
T1 sequence (P30291 whole entry): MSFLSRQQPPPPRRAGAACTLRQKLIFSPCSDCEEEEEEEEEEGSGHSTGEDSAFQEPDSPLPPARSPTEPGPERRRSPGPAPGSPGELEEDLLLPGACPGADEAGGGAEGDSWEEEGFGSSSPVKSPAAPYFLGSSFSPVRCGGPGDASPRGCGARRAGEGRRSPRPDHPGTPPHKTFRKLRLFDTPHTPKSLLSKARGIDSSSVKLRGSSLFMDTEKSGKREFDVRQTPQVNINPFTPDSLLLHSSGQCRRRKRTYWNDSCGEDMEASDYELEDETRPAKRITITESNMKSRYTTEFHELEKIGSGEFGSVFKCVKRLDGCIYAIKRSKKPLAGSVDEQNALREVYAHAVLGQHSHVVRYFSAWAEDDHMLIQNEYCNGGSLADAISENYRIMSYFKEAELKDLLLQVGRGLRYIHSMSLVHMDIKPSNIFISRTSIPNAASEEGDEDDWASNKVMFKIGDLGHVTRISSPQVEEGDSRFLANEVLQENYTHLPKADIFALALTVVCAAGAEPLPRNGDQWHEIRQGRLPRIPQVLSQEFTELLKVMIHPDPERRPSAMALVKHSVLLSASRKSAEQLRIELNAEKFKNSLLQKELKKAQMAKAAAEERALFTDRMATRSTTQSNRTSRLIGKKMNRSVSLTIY
T1 sequence (Q96SW2 whole entry): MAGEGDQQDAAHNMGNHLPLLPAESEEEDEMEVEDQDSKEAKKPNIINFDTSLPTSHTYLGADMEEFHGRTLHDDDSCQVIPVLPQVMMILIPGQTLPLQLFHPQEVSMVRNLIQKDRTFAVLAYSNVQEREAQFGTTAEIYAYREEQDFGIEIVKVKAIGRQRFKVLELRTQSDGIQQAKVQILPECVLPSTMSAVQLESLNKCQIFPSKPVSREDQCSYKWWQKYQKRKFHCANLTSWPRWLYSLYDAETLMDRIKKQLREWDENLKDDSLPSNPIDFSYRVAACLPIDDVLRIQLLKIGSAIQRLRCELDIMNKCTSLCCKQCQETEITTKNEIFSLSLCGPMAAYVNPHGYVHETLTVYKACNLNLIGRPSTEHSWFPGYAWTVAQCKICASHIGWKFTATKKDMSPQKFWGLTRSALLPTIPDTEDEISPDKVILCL
T1 sequence (Q16531 whole entry partner): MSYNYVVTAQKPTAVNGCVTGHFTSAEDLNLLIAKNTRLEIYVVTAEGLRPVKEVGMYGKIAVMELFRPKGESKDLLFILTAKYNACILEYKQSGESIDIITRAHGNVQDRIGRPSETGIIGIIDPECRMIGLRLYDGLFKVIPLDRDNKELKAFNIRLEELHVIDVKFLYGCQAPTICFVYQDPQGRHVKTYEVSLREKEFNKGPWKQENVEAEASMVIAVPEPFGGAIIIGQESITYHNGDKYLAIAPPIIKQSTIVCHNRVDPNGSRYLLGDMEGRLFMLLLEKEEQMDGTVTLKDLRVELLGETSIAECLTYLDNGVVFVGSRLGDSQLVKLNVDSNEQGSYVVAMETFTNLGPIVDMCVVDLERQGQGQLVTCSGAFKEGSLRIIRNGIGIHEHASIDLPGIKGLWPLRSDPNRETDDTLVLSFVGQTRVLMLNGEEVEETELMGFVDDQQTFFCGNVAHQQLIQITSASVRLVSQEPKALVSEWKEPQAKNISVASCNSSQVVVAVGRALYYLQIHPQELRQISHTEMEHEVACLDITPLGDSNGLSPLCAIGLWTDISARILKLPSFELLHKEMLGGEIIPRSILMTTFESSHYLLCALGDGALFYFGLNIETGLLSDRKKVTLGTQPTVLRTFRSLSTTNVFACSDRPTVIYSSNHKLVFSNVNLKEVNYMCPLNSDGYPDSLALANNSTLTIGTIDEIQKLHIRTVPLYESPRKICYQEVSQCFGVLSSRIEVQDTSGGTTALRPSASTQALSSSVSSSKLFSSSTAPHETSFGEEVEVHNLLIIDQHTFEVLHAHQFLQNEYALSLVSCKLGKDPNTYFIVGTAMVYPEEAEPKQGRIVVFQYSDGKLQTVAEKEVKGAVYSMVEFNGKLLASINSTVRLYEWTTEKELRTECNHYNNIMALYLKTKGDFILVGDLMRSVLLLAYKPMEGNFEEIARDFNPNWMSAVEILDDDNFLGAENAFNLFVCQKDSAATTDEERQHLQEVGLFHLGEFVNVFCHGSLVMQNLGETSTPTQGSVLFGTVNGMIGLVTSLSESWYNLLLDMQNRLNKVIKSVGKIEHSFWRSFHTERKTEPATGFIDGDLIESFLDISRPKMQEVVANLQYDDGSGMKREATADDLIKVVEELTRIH
Outline: (§1)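 Compounds were tested at 50 nM and 500 nM on hPBMCs (1×10^6 cells/mL) for 24 h, alongside DMSO. Proteins were detected by Western blot after denaturation at 95 °C; remaining protein computed from normalised band grayscale.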

IKZF1 = molecular target: T2, IKZF1 (Homo sapiens, UniProt Q13422+Q96SW2); assay: Western blot degradation of IKZF1 in hPBMCs (24 h)
T2 construct: The supernatant was aspirated as the extracted total cell protein; endogenous in cells; host or cells: human peripheral blood mononuclear cells (hPBMCs)
Outline: as §1

IKZF2 = molecular target: T3, IKZF2 (Homo sapiens, UniProt Q96SW2+Q9UKS7); assay: Western blot degradation of IKZF2 in hPBMCs (24 h)
T3 construct: The supernatant was aspirated as the extracted total cell protein; endogenous in cells; host or cells: human peripheral blood mononuclear cells (hPBMCs)
T3 sequence (Q9UKS7 whole entry): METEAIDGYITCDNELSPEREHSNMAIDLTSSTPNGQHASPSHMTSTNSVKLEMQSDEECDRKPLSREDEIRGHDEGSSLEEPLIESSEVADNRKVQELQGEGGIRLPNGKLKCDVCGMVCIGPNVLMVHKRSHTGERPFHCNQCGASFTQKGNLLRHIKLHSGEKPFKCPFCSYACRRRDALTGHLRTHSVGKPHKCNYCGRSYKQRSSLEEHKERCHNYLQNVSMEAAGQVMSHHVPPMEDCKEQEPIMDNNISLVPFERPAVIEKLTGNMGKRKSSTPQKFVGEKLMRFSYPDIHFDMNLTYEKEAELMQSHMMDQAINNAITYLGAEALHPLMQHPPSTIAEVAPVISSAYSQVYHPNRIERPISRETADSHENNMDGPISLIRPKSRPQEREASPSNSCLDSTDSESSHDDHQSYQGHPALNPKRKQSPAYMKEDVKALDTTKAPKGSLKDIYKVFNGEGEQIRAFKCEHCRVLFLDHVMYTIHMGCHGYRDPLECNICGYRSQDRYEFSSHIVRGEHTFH
T3 sequence (Q96SW2 whole entry): as the sequence (Q96SW2 whole entry) above
T3 sequence (Q16531 whole entry partner): as the sequence (Q16531 whole entry partner) above
Outline: as §1

IKZF3 = molecular target: T4, IKZF3 (Homo sapiens, UniProt Q96SW2+Q9UKT9); assay: Western blot degradation of IKZF3 in hPBMCs (24 h)
T4 construct: The supernatant was aspirated as the extracted total cell protein; endogenous in cells; host or cells: human peripheral blood mononuclear cells (hPBMCs)
T4 sequence (Q9UKT9 whole entry): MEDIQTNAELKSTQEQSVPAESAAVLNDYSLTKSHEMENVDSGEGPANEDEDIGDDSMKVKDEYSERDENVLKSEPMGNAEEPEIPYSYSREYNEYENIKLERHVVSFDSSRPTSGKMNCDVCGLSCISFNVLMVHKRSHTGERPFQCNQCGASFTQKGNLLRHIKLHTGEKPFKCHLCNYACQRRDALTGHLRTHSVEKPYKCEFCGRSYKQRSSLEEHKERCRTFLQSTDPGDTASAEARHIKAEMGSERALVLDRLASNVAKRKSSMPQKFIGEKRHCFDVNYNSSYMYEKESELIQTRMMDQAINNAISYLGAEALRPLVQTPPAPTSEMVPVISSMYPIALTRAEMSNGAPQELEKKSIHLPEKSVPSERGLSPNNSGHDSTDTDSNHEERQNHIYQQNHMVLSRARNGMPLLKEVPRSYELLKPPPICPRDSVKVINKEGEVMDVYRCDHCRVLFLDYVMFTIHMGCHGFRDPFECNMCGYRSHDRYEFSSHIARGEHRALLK
T4 sequence (Q96SW2 whole entry): as the sequence (Q96SW2 whole entry) above
T4 sequence (Q16531 whole entry partner): as the sequence (Q16531 whole entry partner) above
Outline: as §1

CK1α = molecular target: T5, CK1α (Homo sapiens, UniProt P48729+Q96SW2); assay: Western blot degradation of CK1α in hPBMCs (24 h)
T5 construct: The supernatant was aspirated as the extracted total cell protein; endogenous in cells; host or cells: human peripheral blood mononuclear cells (hPBMCs)
T5 sequence (P48729 whole entry): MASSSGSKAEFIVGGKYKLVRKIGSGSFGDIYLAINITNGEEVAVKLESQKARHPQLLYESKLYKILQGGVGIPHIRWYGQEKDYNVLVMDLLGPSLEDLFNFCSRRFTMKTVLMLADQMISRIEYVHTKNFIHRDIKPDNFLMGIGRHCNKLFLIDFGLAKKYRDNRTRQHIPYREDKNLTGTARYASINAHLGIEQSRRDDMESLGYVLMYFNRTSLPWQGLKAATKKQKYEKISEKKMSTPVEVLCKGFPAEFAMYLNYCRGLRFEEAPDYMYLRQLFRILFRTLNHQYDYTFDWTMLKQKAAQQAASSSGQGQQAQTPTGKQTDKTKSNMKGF
T5 sequence (Q96SW2 whole entry): as the sequence (Q96SW2 whole entry) above
T5 sequence (Q16531 whole entry partner): as the sequence (Q16531 whole entry partner) above
Outline: as §1

GSPT1 = molecular target: T6, GSPT1 (Homo sapiens, UniProt P15170+Q96SW2); assay: Western blot degradation of GSPT1 in hPBMCs (24 h)
T6 construct: The supernatant was aspirated as the extracted total cell protein; endogenous in cells; host or cells: human peripheral blood mononuclear cells (hPBMCs)
T6 sequence (P15170 whole entry): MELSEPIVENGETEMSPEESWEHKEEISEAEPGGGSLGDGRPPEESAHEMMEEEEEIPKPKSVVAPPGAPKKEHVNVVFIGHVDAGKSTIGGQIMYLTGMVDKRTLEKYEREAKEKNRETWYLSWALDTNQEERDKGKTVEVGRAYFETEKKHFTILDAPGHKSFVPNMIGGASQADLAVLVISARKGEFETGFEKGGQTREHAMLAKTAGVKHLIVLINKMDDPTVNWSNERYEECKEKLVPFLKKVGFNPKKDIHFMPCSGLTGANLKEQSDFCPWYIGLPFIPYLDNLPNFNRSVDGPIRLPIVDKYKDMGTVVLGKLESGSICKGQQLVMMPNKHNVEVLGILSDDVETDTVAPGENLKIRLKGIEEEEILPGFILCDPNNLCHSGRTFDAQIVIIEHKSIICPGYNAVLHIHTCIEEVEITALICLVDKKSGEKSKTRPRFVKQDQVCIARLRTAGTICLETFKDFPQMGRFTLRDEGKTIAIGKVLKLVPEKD
T6 sequence (Q96SW2 whole entry): as the sequence (Q96SW2 whole entry) above
T6 sequence (Q16531 whole entry partner): as the sequence (Q16531 whole entry partner) above
Outline: as §1

Compound	WEE1 substrate protein remaining % (WEE1)	IKZF1 substrate protein remaining % (IKZF1)	IKZF2 substrate protein remaining % (IKZF2)	IKZF3 substrate protein remaining % (IKZF3)	CK1α substrate protein remaining % (CK1α)	GSPT1 substrate protein remaining % (GSPT1)
O=C1CCN(N2C(=O)c3ccc(CN4CC=C(c5cccc6c(F)cccc56)CC4)cc3C2=O)C(=O)N1 [GT-07687, 2-(2,4-dioxotetrahydropyrimidin-1(2H)-yl)-5-((4-(5-fluoronaphthalen-1-yl)-3,6-dihydropyridin-1(2H)-yl)methyl)isoindoline-1,3-dione]	B (80%< substrate protein remaining % ≤100%)	B (80%< substrate protein remaining % ≤100%)	B (80%< substrate protein remaining % ≤100%)	B (80%< substrate protein remaining % ≤100%)	B (80%< substrate protein remaining % ≤100%)	A (0% ≤ substrate protein remaining % ≤80%)
O=C1CCN(N2C(=O)c3ccc(CN4CCC(c5cccc6cnccc56)CC4)cc3C2=O)C(=O)N1 [GT-07688, 2-(2,4-dioxotetrahydropyrimidin-1(2H)-yl)-5-((4-(isoquinolin-5-yl)piperidin-1-yl)methyl)isoindoline-1,3-dione]	B (80%< substrate protein remaining % ≤100%)	B (80%< substrate protein remaining % ≤100%)	B (80%< substrate protein remaining % ≤100%)	B (80%< substrate protein remaining % ≤100%)	B (80%< substrate protein remaining % ≤100%)	A (0% ≤ substrate protein remaining % ≤80%)
O=C1CCN(N2C(=O)c3ccc(CN4CCC(c5ccnc6cc(F)ccc56)CC4)cc3C2=O)C(=O)N1 [GT-07689, 2-(2,4-dioxotetrahydropyrimidin-1(2H)-yl)-5-((4-(7-fluoroquinolin-4-yl)piperidin-1-yl)methyl)isoindoline-1,3-dione]	B (80%< substrate protein remaining % ≤100%)	B (80%< substrate protein remaining % ≤100%)	B (80%< substrate protein remaining % ≤100%)	B (80%< substrate protein remaining % ≤100%)	A (0% ≤ substrate protein remaining % ≤80%)	A (0% ≤ substrate protein remaining % ≤80%)
O=C1CCN(N2Cc3cc(CN4CC(C5CCOc6cc(F)ccc65)C4)ccc3C2=O)C(=O)N1 (stereo not drawn) [GT-07690, 1-(5-((3-(7-fluorochroman-4-yl)azetidin-1-yl)methyl)-1-oxoisoindolin-2-yl)dihydropyrimidine-2,4(1H,3H)-dione]	B (80%< substrate protein remaining % ≤100%)	B (80%< substrate protein remaining % ≤100%)	A (0% ≤ substrate protein remaining % ≤80%)	B (80%< substrate protein remaining % ≤100%)	A (0% ≤ substrate protein remaining % ≤80%)	A (0% ≤ substrate protein remaining % ≤80%)
O=C1CCN(N2Cc3cc(CN4CC(c5ccnc6cc(F)ccc56)C4)ccc3C2=O)C(=O)N1 [GT-07711, 1-(5-((3-(7-fluoroquinolin-4-yl)azetidin-1-yl)methyl)-1-oxoisoindolin-2-yl)dihydropyrimidine-2,4(1H,3H)-dione]	B (80%< substrate protein remaining % ≤100%)	A (0% ≤ substrate protein remaining % ≤80%)	A (0% ≤ substrate protein remaining % ≤80%)	A (0% ≤ substrate protein remaining % ≤80%)	A (0% ≤ substrate protein remaining % ≤80%)	A (0% ≤ substrate protein remaining % ≤80%)
